Test system: CAPAN-1 xenografts
Experiment: CAPAN-1 xenografts, BRCA 2 deficient (−/−) compared with not deficient (+/+): single dose PLX038A or irinotecan, tumor volume
Format: in vivo, mice
Conditions: irinotecan 137 μg/kg single i.p.; FIGS. 4B vs 4C
Experimental: Female NCr nude mice (N CrTac:NCr-Foxnt1^nu; ˜6-7 weeks old) from Taconic Bioscience (Cambridge City, Ind.) were housed at the UCSF Preclinical Therapeutics Core vivarium (San Francisco, Calif.). All animal studies were carried out in accordance with UCSF Institutional Animal Care and Use Committee. Tumor xenografts were established by subcutaneous injection with MX-1 tumor cells (2×10^6 cells in 100 μl of serum free medium mixed 1:1 with Matrigel) into the right flank of female NCr nude mice.
Groups (N=4-5/group) were dosed when the group average reached 100-200 mm^3 in size. […] For groups receiving the combination, daily BMN673 dosing began on the same day (FIG. 3A) or after a 4-day delay (FIG. 3B) after dosing PLX038A. Tumor volumes (caliper measurement: 0.5×(length×width^2)) and body weights were measured twice weekly. When vehicle control tumors reached ˜3000 mm^3 in size, mice were treated with the combination of a single dose of PLX038A (15 μmol/kg) and daily BMN673 (0.4 μmol/kg) combination with no delay between dosing (FIG. 3A).
MX-1 cells are BRCA 1 deficient and CAPAN-1 cells are supplied as either BRCA 2 deficient (−/−) or not deficient (+/+).

Question: Which “effectiveness in BRCA 2 deficient vs non-deficient cells, irinotecan” value does the source give for `CCc1c2c(nc3ccc(OC(=O)N4CCC(N5CCCCC5)CC4)cc13)-c1cc3c(c(=O)n1C2)COC(=O)[C@]3(O)CC` [irinotecan] here?
Answer: enhanced
